These results are taken from PubChem BioAssay (NCI).

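Following 48 hours of exposure in 96-well plates, responses at five concentrations were used to interpolate endpoints linearly. Abbreviation: GI50, concentration required for 50% inhibition of growth. TGI marks complete inhibition of growth.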 A value given as a limit tells only on which side of the number the result lay.

Among the test systems are MCF7 breast; UACC-257 melanoma; HCT-15 colon; U251 CNS; PC-3 prostate; MALME-3M melanoma; CCRF-CEM leukemia; HOP-62 NSCLC.
Experiment in all cases: NCI-60 cell line screen, 48 h

Consider `N#CC1(C(N)=O)C(c2ccc(Cl)cc2)CC(=O)CC1c1ccc(Cl)cc1` (centres undefined), for which the GI50 in the experiment on MCF7 breast was 17.4 µM; in the experiment with UACC-257 melanoma, 17.5 µM; in the experiment with HCT-15 colon it was 16.8 µM; in the experiment with U251 CNS it was 16.6 µM; with PC-3 prostate it was 15.9 µM; in the experiment on MALME-3M melanoma it was 15.7 µM. In addition, the GI50 with CCRF-CEM leukemia is 21.5 µM. For the same molecule, the TGI with MCF7 breast is 31.7 µM; with UACC-257 melanoma, 36 µM; in the experiment with HCT-15 colon it was 34.3 µM; with U251 CNS, 31.6 µM; in the experiment on PC-3 prostate, 33.7 µM; with MALME-3M melanoma, 33.4 µM. Also, in the experiment on CCRF-CEM leukemia, the TGI was determined as 63.5 µM.
Consider `CC(C)C[C@H](NC(=O)CNC(=O)c1cc(Cl)ccc1Cl)B1OC(=O)CC(CC(=O)O)(C(=O)O)O1` (some centres undefined), for which the GI50 with MCF7 breast was 0.0391 µM; with HCT-15 colon, 0.0578 µM; in the experiment on U251 CNS, 0.0874 µM; with PC-3 prostate, 0.105 µM; in the experiment with MALME-3M melanoma, 0.0329 µM; in the experiment on HOP-62 NSCLC, 0.124 µM. The GI50 in the experiment on CCRF-CEM leukemia is 0.0299 µM. The TGI with MCF7 breast was 43.1 µM; in the experiment on HCT-15 colon, 5.98 µM; in the experiment with U251 CNS it was 5.64 µM; in the experiment with PC-3 prostate, 1.82 µM; with MALME-3M melanoma it was 0.412 µM; with HOP-62 NSCLC, 1.05 µM. The TGI in the experiment with CCRF-CEM leukemia is above 100 µM.
Take `NNC(=O)CS(=O)(=O)Nc1ncccn1`: the TGI with MCF7 breast, with UACC-257 melanoma, in the experiment on HCT-15 colon, in the experiment with U251 CNS, with PC-3 prostate and in the experiment with MALME-3M melanoma was above 100 µM in each case. This molecule also came in with a TGI in the experiment on HOP-62 NSCLC above 100 µM.
In the case of `C1CCC([PH+](C2CCCCC2)C2CCCCC2[PH+](C2CCCCC2)C2CCCCC2)CC1.[Au].[CH-]1CCCCC1CC1CCCC[N-]1` (centres undefined), the GI50 with UACC-257 melanoma is 0.323 µM; in the experiment with U251 CNS it was 0.199 µM; with PC-3 prostate, 0.283 µM; with MALME-3M melanoma, 0.192 µM; with HOP-62 NSCLC, 0.349 µM. Further, the TGI worked out at 1.94 µM in the experiment on UACC-257 melanoma; 1.59 µM with U251 CNS; 1.93 µM with PC-3 prostate; 0.739 µM in the experiment on MALME-3M melanoma; 2.58 µM with HOP-62 NSCLC.
As to `O=C1c2cccnc2C(=O)c2c1c(C(=O)NCCCN1CCCCC1)c1ccccn21`, the GI50 in the experiment on UACC-257 melanoma is 0.813 µM; in the experiment with HCT-15 colon it was 0.816 µM; in the experiment on U251 CNS, 1.42 µM; with PC-3 prostate, 1.49 µM; with MALME-3M melanoma, 0.226 µM; with HOP-62 NSCLC, 1.08 µM. The GI50 in the experiment with CCRF-CEM leukemia is 3.26 µM. The TGI came to 2.18 µM in the experiment with UACC-257 melanoma; 2.57 µM with HCT-15 colon; 3.21 µM in the experiment with U251 CNS; 7.21 µM in the experiment on PC-3 prostate; 0.684 µM in the experiment on MALME-3M melanoma; 3.18 µM in the experiment with HOP-62 NSCLC. This molecule came in with a TGI with CCRF-CEM leukemia above 100 µM.
Take `CCCCCCCCCCCCCCCCCC[n+]1ccc2c(C)c3c(c(C)c2c1)c1cc(O)ccc1n3CC`: the GI50 is 2.75 µM in the experiment with MCF7 breast; 3.34 µM in the experiment on HCT-15 colon; 1.3 µM in the experiment with PC-3 prostate; 2.66 µM in the experiment on HOP-62 NSCLC; 3.27 µM in the experiment with CCRF-CEM leukemia. The TGI in the experiment on MCF7 breast was found to be 17.1 µM; with HCT-15 colon it was 47.1 µM; in the experiment on PC-3 prostate it was 11 µM; in the experiment on HOP-62 NSCLC, 10.4 µM; with CCRF-CEM leukemia it was 34.2 µM.
Take `C/C(=C\c1ccc2ccccc2c1)[N+](=O)[O-]`: the GI50 in the experiment with UACC-257 melanoma is 1.56 µM; with HCT-15 colon, 1.56 µM; in the experiment on U251 CNS it was 1.77 µM; with PC-3 prostate, 1.89 µM; in the experiment with MALME-3M melanoma, 2.07 µM; in the experiment with HOP-62 NSCLC, 2.31 µM. Further, the GI50 with CCRF-CEM leukemia is 1.89 µM. In addition, the TGI with UACC-257 melanoma was 2.9 µM; in the experiment with HCT-15 colon, 3.59 µM; in the experiment on U251 CNS, 3.6 µM; with PC-3 prostate, 3.89 µM; with MALME-3M melanoma it was 3.97 µM; in the experiment on HOP-62 NSCLC, 5.49 µM. In addition, the TGI with CCRF-CEM leukemia amounted to 5.65 µM.
Regarding `COc1cccc(OC(=O)c2ccc(C(F)(F)F)nc2Nc2cc(Cl)ccc2C)c1`, the GI50 in the experiment on MCF7 breast was 4.2 µM; in the experiment with UACC-257 melanoma, 13.3 µM; with HCT-15 colon, 4.33 µM; with U251 CNS, 8.13 µM; with PC-3 prostate, 4.47 µM; in the experiment with HOP-62 NSCLC, 15.6 µM. The GI50 in the experiment with CCRF-CEM leukemia was 2.12 µM. Moreover, the TGI in the experiment with MCF7 breast was above 100 µM; in the experiment with UACC-257 melanoma it was 54.8 µM; in the experiment with HCT-15 colon, above 100 µM; with U251 CNS, above 100 µM; in the experiment on PC-3 prostate, above 100 µM; in the experiment with HOP-62 NSCLC it was 36.1 µM. The molecule further yielded a TGI with CCRF-CEM leukemia of 5.13 µM.
As for `CN(C)CCCn1c(=O)c2ccccc2c2ccccc21`, the GI50 in the experiment on MCF7 breast was 7.24 µM; in the experiment on UACC-257 melanoma, 12.6 µM; with HCT-15 colon, 13.8 µM; in the experiment on U251 CNS, 13.8 µM; with PC-3 prostate, 18.2 µM; in the experiment with HOP-62 NSCLC, 20.5 µM. Besides, the GI50 with CCRF-CEM leukemia is 22 µM. Besides, the TGI in the experiment with MCF7 breast was above 100 µM; with UACC-257 melanoma, 26.6 µM; in the experiment with HCT-15 colon, above 100 µM; with U251 CNS, 78.5 µM; in the experiment with PC-3 prostate, 54.2 µM; in the experiment with HOP-62 NSCLC, above 100 µM. This molecule displayed a TGI with CCRF-CEM leukemia above 100 µM.
Consider `CCOC(=O)C1=C(C)N(c2ccc(Cl)cc2)[C@]2(C#N)C(O)=C(Cl)C(Cl)=C(O)[C@]12C#N`, for which the GI50 is above 100 µM in the experiment with MCF7 breast; above 100 µM with UACC-257 melanoma; 45.8 µM in the experiment with HCT-15 colon; above 100 µM in the experiment on U251 CNS; above 100 µM in the experiment on MALME-3M melanoma; above 100 µM in the experiment with HOP-62 NSCLC. The GI50 in the experiment on CCRF-CEM leukemia is 25.6 µM. In addition, the TGI with MCF7 breast, with UACC-257 melanoma, in the experiment on HCT-15 colon, in the experiment on U251 CNS, in the experiment with MALME-3M melanoma and with HOP-62 NSCLC was above 100 µM each time. The TGI in the experiment with CCRF-CEM leukemia is 75.9 µM.
For the molecule `O=C1/C(=C/c2ccccc2[N+](=O)[O-])Cc2ccccc21`, the GI50 is 1.38 µM in the experiment on MCF7 breast; 1.83 µM in the experiment with UACC-257 melanoma; 1.66 µM with HCT-15 colon; 2.89 µM in the experiment on U251 CNS; 1.83 µM with PC-3 prostate; 2.28 µM with MALME-3M melanoma. Moreover, the GI50 with HOP-62 NSCLC is 3 µM. For the same molecule, the TGI turned out to be 11.8 µM with MCF7 breast; 4.35 µM with UACC-257 melanoma; 4.71 µM in the experiment on HCT-15 colon; 10.6 µM with U251 CNS; 5.33 µM with PC-3 prostate; 5.71 µM in the experiment on MALME-3M melanoma. In the experiment with HOP-62 NSCLC, this molecule yielded a TGI of 17.2 µM.
